# Measured values from US20230136702A1, “Inhibitors of Human Herpesviruses” (The Governors of the University of Alberta, priority 2020, published 2023).
# Counter-ions that a name gives are not always drawn.
# Molecular target: T1, HCMV DNA polymerase (UL54) (Human cytomegalovirus, UniProt P08546)
# T1 construct: 6His (C); made in house; host or cells: Sf9 insect cells (baculovirus, pFastBac)
# Test: HCMV DNA polymerase enzyme inhibition assay (ProFoldin, fluorescence)
# Assay type: biochemical
# Conditions: 37° C., duplicate, max 40 μM
# Experimental: The HCMV DNA polymerase assay was developed by ProFoldin. The assay detects the formation of DNA from the DNA polymerase reaction in the presence of a DNA template, dATP and dGTP. The formation of the DNA is detected by using a fluorescence method. The fluorescence intensity increases when DNA is generated by the enzyme reaction.
# A time-course experiment was performed aside the enzyme inhibition assay to ensure the assay was sensitive to the enzyme inhibition. The wells for the time-course experiment contained 1 μL of DMSO and the same reaction mixture as that in the enzyme inhibition assay. The time-course data varied between plates. The reactions were stopped when the fluorescence reached a value of about 3700 for each plate.
# Exemplary solid compounds (e.g., as described herein) were dissolved in DMSO to make […] stock solutions. PFA (phosphonoformic acid or phosphonomethanoic acid) was used as a positive control. The compound mother plates were prepared at 50× concentrated compound concentrations with a 2-fold serial dilution. All the exemplary compounds except PFA were diluted in DMSO. PFA was diluted in water. The maximum compound concentration was 2 mM that gave the final concentration of 40 μM in the assay. One microliter of the 50× stock solutions was transferred into the assay plates. Three copies of assay plates were prepared, two for HCMV DNA polymerase assay and one for compound background control.
# The following is the protocol for enzyme inhibition performed at 37° C.:
# 1. Prepared a premix composed of 35347 μL of H2O, 5220 μL of 10× assay buffer and 149 μL of 350×HCMV DNA polymerase.
# 2. Added 39 μL of the premix into the wells with 1 μL of the compound. Incubated the mixture for at least 5 min.
# 3. Added 10 μL of 5×dNTP (0.1 mM), 5×DNA template solutions into each well and incubated the solution until the fluorescence value reached a value about 3700 for the DMSO-only control wells.
# 4. Added 50 μL of the 1× dye into the wells.
# 5. Read the fluorescence at emission wavelength of 535 nm and excitation wavelength of 485 nm.
# For the compound background reading, added 99 μL of water in the wells with 1 μL of compounds and read the fluorescence. […] The 0% inhibition value F0 was from the wells with DMSO (no inhibitor).
# The background values were subtracted from the fluorescence reading to get the net fluorescence values. The net fluorescence values were used for calculation of the percentage inhibition.
# The assay was performed in duplicate for the test article at […], 1.25, 0.625, 0.313, 0.156 and 0.078 μM. The IC50 curves were obtained by fitting the percentage inhibition values with the compound concentrations using Prism GraphPad software.
# T1 sequence (P08546 whole entry): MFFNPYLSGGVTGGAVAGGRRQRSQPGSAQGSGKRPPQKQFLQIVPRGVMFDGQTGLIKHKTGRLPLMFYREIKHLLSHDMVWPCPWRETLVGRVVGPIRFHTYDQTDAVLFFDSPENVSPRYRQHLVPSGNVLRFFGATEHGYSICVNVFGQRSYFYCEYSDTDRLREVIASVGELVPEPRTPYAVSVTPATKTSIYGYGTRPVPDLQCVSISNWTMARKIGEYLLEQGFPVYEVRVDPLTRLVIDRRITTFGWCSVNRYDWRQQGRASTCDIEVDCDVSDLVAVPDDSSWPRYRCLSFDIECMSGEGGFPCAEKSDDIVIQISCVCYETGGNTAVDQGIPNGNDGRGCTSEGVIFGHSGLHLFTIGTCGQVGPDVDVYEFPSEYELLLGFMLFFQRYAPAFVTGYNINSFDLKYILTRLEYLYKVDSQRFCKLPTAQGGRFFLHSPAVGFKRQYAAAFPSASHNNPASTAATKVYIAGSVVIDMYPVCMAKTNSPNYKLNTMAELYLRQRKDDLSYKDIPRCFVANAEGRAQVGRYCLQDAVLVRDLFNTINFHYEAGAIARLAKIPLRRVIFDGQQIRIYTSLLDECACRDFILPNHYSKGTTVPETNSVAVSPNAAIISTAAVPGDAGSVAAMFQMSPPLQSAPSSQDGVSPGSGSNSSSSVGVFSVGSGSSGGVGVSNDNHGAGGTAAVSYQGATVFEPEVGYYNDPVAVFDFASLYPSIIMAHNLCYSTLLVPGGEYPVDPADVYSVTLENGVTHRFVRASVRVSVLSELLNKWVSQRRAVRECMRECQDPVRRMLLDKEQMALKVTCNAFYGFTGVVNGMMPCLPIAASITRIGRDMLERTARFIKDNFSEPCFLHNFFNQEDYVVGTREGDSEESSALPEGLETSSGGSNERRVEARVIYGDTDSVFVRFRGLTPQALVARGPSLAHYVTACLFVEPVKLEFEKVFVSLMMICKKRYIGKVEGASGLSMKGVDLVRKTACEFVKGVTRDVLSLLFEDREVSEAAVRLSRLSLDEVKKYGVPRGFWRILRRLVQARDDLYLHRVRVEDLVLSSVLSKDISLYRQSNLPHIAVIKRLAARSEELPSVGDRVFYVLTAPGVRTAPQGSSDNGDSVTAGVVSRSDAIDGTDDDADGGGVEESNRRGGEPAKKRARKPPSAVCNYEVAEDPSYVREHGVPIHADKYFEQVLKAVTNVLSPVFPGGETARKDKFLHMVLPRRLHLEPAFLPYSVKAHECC
row,Structure (SMILES),IC50 [nM]
1,"CNCCN1CCN(c2cnc3c(cc(C(=O)NCc4ccc(Cl)cc4)c(=O)n3CC(=O)N3CC(C)(F)C3)n2)C1=O [Compound 23, N-[(4-chlorophenyl)methyl]-5-[2-(3-fluoro-3-methylazetidin-1-yl)-2-oxoethyl]-2-{3-[2-(methylamino)ethyl]-2-oxoimidazolidin-1-yl}-6-oxo-5,6-dihydropyrido[2,3-b]pyrazine-7-carboxamide-hydrogen chloride]",< 1000
2,"CN(CCN1CCN(c2cnc3c(cc(C(=O)NCc4ccc(Cl)cc4)c(=O)n3CC(=O)N3CC(C)(F)C3)n2)C1=O)S(C)(=O)=O [Compound 24, N-[(4-chlorophenyl)methyl]-5-[2-(3-fluoro-3-methylazetidin-1-yl)-2-oxoethyl]-2-(3-{2-[(methanesulfonyl)(methyl)amino]ethyl}-2-oxoimidazolidin-1-yl)-6-oxo-5,6-dihydropyrido[2,3-b]pyrazine-7-carboxamide]",> 1000
3,"CC1(F)CN(C(=O)Cn2c(=O)c(C(=O)NCc3ccc(Cl)cc3)cc3nc(N4CCN(CCNC(=O)CN)C4=O)cnc32)C1 [Compound 38, N-[(4-chlorophenyl)methyl]-5-[2-(3-fluoro-3-methylazetidin-1-yl)-2-oxoethyl]-2-{3-[2-(glycylamino)ethyl]-2-oxoimidazolidin-1-yl}-6-oxo-5,6-dihydropyrido[2,3-b]pyrazine-7-carboxamide-hydrochloride salt]",< 1000
4,"CC1(F)CN(C(=O)Cn2c(=O)c(C(=O)NCc3ccc(Cl)cc3)cc3nc(N4CCN(CCN5CCOCC5)C4=O)cnc32)C1 [Compound 39, N-[(4-chlorophenyl)methyl]-5-[2-(3-fluoro-3-methylazetidin-1-yl)-2-oxoethyl]-2-{3-[2-(morpholin-4-yl)ethyl]-2-oxoimidazolidin-1-yl}-6-oxo-5,6-dihydropyrido[2,3-b]pyrazine-7-carboxamide]",> 1000

# The remaining lines, values ahead:
row,IC50 [nM],Structure (SMILES)
1,< 1000,"CN1CCN(c2cnc3c(cc(C(=O)NCc4ccc(F)cc4)c(=O)n3CC(=O)N3CC4(CC4)C3)n2)C1=O [Compound 10, 5-[2-(5-azaspiro[2.3]hexan-5-yl)-2-oxoethyl]-N-[(4-fluorophenyl)methyl]-2-(3-methyl-2-oxoimidazolidin-1-yl)-6-oxo-5,6-dihydropyrido[2,3-b]pyrazine-7-carboxamide]"
2,< 1000,"CN1CCN(c2cnc3c(cc(C(=O)NCc4ccc(C#N)cc4)c(=O)n3CC(=O)N3CC4(CC4)C3)n2)C1=O [Compound 11, 5-[2-(5-azaspiro[2.3]hexan-5-yl)-2-oxoethyl]-N-[(4-cyanophenyl)methyl]-2-(3-methyl-2-oxoimidazolidin-1-yl)-6-oxo-5,6-dihydropyrido[2,3-b]pyrazine-7-carboxamide]"
3,< 1000,"CCOC(=O)CCN1CCN(c2cnc3c(cc(C(=O)NCc4ccc(Cl)cc4)c(=O)n3CC(=O)N3CC(C)(F)C3)n2)C1=O [Compound 17, ethyl 3-[3-(7-{[(4-chlorophenyl)methyl]carbamoyl}-5-[2-(3-fluoro-3-methylazetidin-1-yl)-2-oxoethyl]-6-oxo-5,6-dihydropyrido[2,3-b]pyrazin-2-yl)-2-oxoimidazolidin-1-yl]propanoate]"
